Reference: patent US9617276B2, “Compounds and methods for treating AIDS and HIV infections” (priority 2009, dated 2017)
Read-outs that look alike come from different tables or passages of the source.

Legend:
HIV-1NL4-3 = assay: in vitro selection of PI-resistant HIV-1 variants in MT-4 cells; assay type: cell-based; conditions: HIV-1NL4-3 in MT-4 cells, increasing drug concentrations
Excerpt: The culture supernatants were harvested on day 7 and used to infect fresh MT-4 cells for the next round of culture in the presence of increasing concentrations of each drug.

HIV-1 protease = target: T1, HIV-1 protease (Human immunodeficiency virus type 1 group M subtype B, UniProt P04585); assay: HIV protease enzyme inhibition, fluorometric assay of Toth and Marshall; assay type: biochemical; conditions: Ki
T1 construct: A simple, continuous fluorometric assay for HIV protease
Method: (§1) The inhibitory potencies of acyclic and cyclic inhibitors were measured by the assay protocol of Toth and Marshall (Toth, M. V.; Marshall, G. R. A simple, continuous fluorometric assay for HIV protease. Int. J. Pep. Protien Res. 1990, 36, 544-55).

HIV-1 = assay: antiviral assay (IC50); assay type: cell-based
Method: as §1

[1] = system: multidrug-resistant clinical HIV-1 isolates (HIV-1MDR); assay: microbe, parasite or virus in culture; assay type: cell-based
Method: The susceptibility of HIV-1LAI and primary HIV-1 isolates to various drugs were determined as described previously (Koh et al. 2003 Antimicrob Agents Chemother 47:3123-9). Briefly, MT-2 cells (2×10^4/ml) were exposed to 100 50% tissue culture infectious doses (TCID50S) of HIV-1LAI, in the presence or absence of various concentrations of drugs in 96-well microculture plates and were incubated at 37° C. for 7 days. After 100 μl of the medium was removed from each well, 3-(4,5-dimetylthiazol-2-yl)-2,5-diphenyltetrazolium bromide (MTT) solution (10 μl, 7.5 mg/ml in phosphate-buffered saline) was added to each well in the plate, followed by incubation at 37° C. for 3 h. […] All assays were performed in duplicate or triplicate. To determine the susceptibility of primary HIV-1 isolates to drugs, phytohemagglutinin-activated peripheral blood mononuclear cells (PHA-PBMCs; 106/ml) were exposed to 50 TCID50S of each. The target cells were exposed to HIV-1104pre or drug-resistant HIV-1 in the presence or absence of various concentrations of drugs and were incubated for 7 days. Upon the conclusion of the culture, the amounts of p24 Gag protein in the supernatants were determined using a fully automated chemiluminescent enzyme immunoassay system (Lumipulse F; Fujirebio Inc., Tokyo, Japan) (Maeda et al. 2001 J Biol Chem 276:35194-200). To determine the drug susceptibility of certain laboratory HIV-1 strains, MT-4 cells were used as target cells. In brief, MT-4 cells (10^5/ml) were exposed to 100 TCID50S of drug-resistant HIV-1 strains in the presence or absence of various concentrations of drugs and on day 7 of culture, the supernatant was harvested and the amounts of p24 Gag protein were determined. […] All assays were performed in duplicate or triplicate.
These clinical strains contained 9 to 14 amino acid substitutions in the protease-encoding region, which have reportedly been associated with HIV-1 resistance to various PIs.
Amino acid substitutions identified in the protease-encoding region compared to the consensus type B sequence cited from the Los Alamos database include L63P in HIV-1ERS104pre; L10I, K14R, L33I, M36I, M46I, F53I, K55R, I62V, L63P, A71V, G73S, V82A, L90M, and I93L in HIV-1MDR/B; L10I, I15V, K20R, L24I, M36I, M46L, I54V, I62V, L63P, K70Q, V82A, and L89M in HIV-1MDR/C; L10I, V11I, T12E, I15V, L19I, R41K, M46L, L63P, A71T, V82A, and L90M in HIV-1MDR/G; L10I, K14R, R41K, M46L, I54V, L63P, A71V, V82A, L90M, I93L in HIV-1MDR/TM; L10I, K43T, M46L, I54V, L63P, A71V, V82A, L90M, and Q92K in HIV-1MDR/MM; L10I, L24I, I33F, E35D, M36I, N37S, M46L, I54V, R57K, I62V, L63P, A71V, G73S, and V82A in HIV-1MDR/JSL. HIV-1ERS104pre served as a source of wild-type HIV-1. EC50s were determined by using PHA-PBMs as target cells, and inhibition of p24 Gag protein production by each drug was used as an end point. Numbers in parentheses represent n-fold changes of EC50s for each isolate compared to EC50s for wild-type HIV-1ERS104pre.

MT-2 cells = assay: cytotoxicity CC50; assay type: cell-based, Human; conditions: MT-2 cells
[2] = Human immunodeficiency virus 1, Table 2, read-out: IC50
[3] = Human immunodeficiency virus 1, read-out: IC50

| SMILES | passage by which HIV-1 variants replicating in the presence of 1 μM drug emerged (HIV-1NL4-3) [passages] | IC50 (HIV-1; [2]) [nM] | IC50 (HIV-1; [3]) [nM] | further results |
| --- | --- | --- | --- | --- |
| CC(C)CN(C[C@@H](O)[C@H](Cc1ccccc1)NC(=O)O[C@H]1CCOC1)S(=O)(=O)c1ccc(N)cc1 [APV, Amprenavir] | 20 |  |  |  |
| COc1ccc2c(c1)OCCCC=CCCCCN(CC(O)C(Cc1ccccc1)NC(=O)OC1COC3OCCC13)S2(=O)=O (stereo not drawn) [Compound 14b] | 37 | < 10 | < 49 | Ki (HIV-1 protease): < 0.7 nM; Ki (HIV-1 protease; Table 2): < 1 nM |
| COc1ccc2c(c1)OCCC=CCCCCN(CC(O)C(Cc1ccccc1)NC(=O)OC1COC3OCCC13)S2(=O)=O (stereo not drawn) [Compound 14c] |  | < 10 | 2 | IC50 (HIV-1; Human immunodeficiency virus 1, text b167): 2 nM |
| Cc1cccc(C)c1OCC(=O)N[C@@H](Cc1ccccc1)[C@@H](O)C[C@H](Cc1ccccc1)NC(=O)[C@H](C(C)C)N1CCCNC1=O [LPV, lopinavir] |  |  |  | EC50 ([1]; Human immunodeficiency virus 1, read-out: EC50 with multidrug-resistant clinical HIV-1 isolates (mostly)): > 1000 nM |
| CCC[C@@]1(CCc2ccccc2)CC(O)=C([C@H](CC)c2cccc(NS(=O)(=O)c3ccc(C(F)(F)F)cn3)c2)C(=O)O1 [TPV, Tipranavir] |  |  |  | CC50 (MT-2 cells): 54100 ± 2100 nM; EC50 ([1]; Human immunodeficiency virus 1, read-out: greatest EC50 value against the clinical isolates): 380 nM |
